Columns and labels:
[1] = biological target: T1, human TRPV1 receptor (hTRPV1) (Homo sapiens, UniProt Q8NER1); assay: Capsaicin activation assay (Ca2+ influx, FLIPR); assay type: cell-based; settings: hTRPV1 in 1321N1 cells, 0.05 μM capsaicin
T1 construct: expressed in transfected cells
Experimental: Dulbecco's modified Eagle medium (D-MEM) (with 4.5 mg/mL glucose) and fetal bovine serum were obtained from Hyclone Laboratories, Inc. (Logan, Utah). Dulbecco's phosphate-buffered saline (D-PBS) (with 1 mg/mL glucose and 3.6 mg/l Na pyruvate, without phenol red), L-glutamine, hygromycin B, and Lipofectamine® were obtained from Life Technologies (Grand Island, N.Y.). G418 sulfate was obtained from Calbiochem-Novabiochem Corp. (San Diego, Calif.). Capsaicin (8-methyl-N-vanillyl-6-nonenamide) was obtained from Sigma-Aldrich, Co. (St. Louis, Mo.). Fluo-4 AM (N-[4-[6-[(acetyloxy)methoxy]-2,7-difluoro-3-oxo-3H-xanthen-9-yl]-2-[2-[2-[bis[2-[(acetyloxy)methoxy]-2-oxyethyl]amino]-5-methyl-phenoxy[ethoxy]phenyl]-N-[2-[(acetyloxy)methoxy]-2-oxyethyl]-glycine, (acetyloxy)methyl ester) was purchased from Molecular Probes (Eugene, Oreg.).
The cDNAs for the human TRPV1 receptor (hTRPV1) were isolated by reverse transcriptase-polymerase chain reaction (RT-PCR) from human small intestine poly A+ RNA supplied by Clontech (Palo Alto, Calif.) using primers designed surrounding the initiation and termination codons identical to the published sequences (Hayes et al. Pain 2000, 88, 205-215). The resulting cDNA PCR products were subcloned into pClneo mammalian expression vector (Promega) and fully sequenced using fluorescent dye-terminator reagents (Prism, Perkin-Elmer Applied Biosystems Division) and a Perkin-Elmer Applied Biosystems Model 373 DNA sequencer or Model 310 genetic analyzer. Expression plasmids encoding the hTRPV1 cDNA were transfected individually into 1321N1 human astrocytoma cells using Lipofectamine®. Forty-eight hours after transfection, the neomycin-resistant cells were selected with growth medium containing 800 μg/mL Geneticin (Gibco BRL). Surviving individual colonies were isolated and screened for TRPV1 receptor activity. Cells expressing recombinant homomeric TRPV1 receptors were maintained at 37° C. in D-MEM containing 4 mM L-glutamine, 300 μg/mL G418 (Cal-biochem) and 10% fetal bovine serum under a humidified 5% CO2 atmosphere.
The functional activity of compounds at the TRPV1 receptor was determined with a Ca^2+ influx assay and measurement of intracellular Ca^2+ levels ([Ca^2+]i). All compounds were tested over an 11-point half-log concentration range. Compound solutions were prepared in D-PBS (4× final concentration), and diluted serially across 96-well v-bottom tissue culture plates using a Biomek 2000 robotic automation workstation (Beckman-Coulter, Inc., Fullerton, Calif.). A 0.2 μM solution of the TRPV1 agonist capsaicin was also prepared in D-PBS. The fluorescent Ca^2+ chelating dye Fluo-4 AM was used as an indicator of the relative levels of [Ca^2+]i in a 96-well format using a Fluorescence Imaging Plate Reader (FLIPR)(Molecular Devices, Sunnyvale, Calif.). Cells were grown to confluency in 96-well black-walled tissue culture plates. Then, prior to the assay, the cells were loaded with 100 μL per well of Fluo-4 AM (2 μM, in D-PBS) for 1-2 hours at 23° C. Washing of the cells was performed to remove extracellular Fluo-4 AM (2×1 mL D-PBS per well), and afterward, the cells were placed in the reading chamber of the FLIPR instrument. 50 μL of the compound solutions were added to the cells at the 10 second time mark of the experimental run. Then, after a 3-minute time delay, 50 μL of the capsaicin solution was added at the, 190 second time mark (0.05 μM final concentration)(final volume=200 μL) to challenge the TRPV1 receptor. Time length of the experimental run was 240 seconds. Fluorescence readings were made at 1 to 5 second intervals over the course of the experimental run. The peak increase in relative fluorescence units (minus baseline) was calculated from the 190 second time mark to the end of the experimental run, and expressed as a percentage of the 0.05 μM capsaicin (control) response. […]

[2] = Rat telemetry protocol, core body temperature; assay type: in vivo; settings: core body temperature of rats one hour post dosing, 100 μmol/kg p.o., relative to vehicle
Experimental: Male, Sprague Dawley rats, 225-250 grams were anesthetized with Sevoflurane (Abbott Laboratories). Rats were placed on a heating pad and covered with a sterile surgical drape. A ventral midline abdominal incision was made and sterile cotton tip applicators were used to gently move internal tissue and expose the abdominal aorta for implantation of the telemetry catheter (Data Sciences International; TL11M2-050-PXT). Blood flow was temporarily stopped to the lower extremities (5-7 min) with Diffenbach clamps to allow the insertion of the telemetry catheter into the abdominal aorta. Once inserted, a sterile cellulose patch was placed over the catheter/aorta and secured using a small amount of tissue adhesive (Vetbond, 3M). Once catheter placement was complete, the clamps were removed and blood flow was restored to the lower extremities. Thetransmitter was placed in the intraperitoneal cavity. The transmitter suture rib was sewn into the abdominal sutures to secure it in place. The skin was closed using sterile wound clips and the animal removed from Sevoflurane. Buprenex ([…] s.c.; Phoenix) was administered for post-operative analgesia. Animals were maintained on a heating pad until ambulatory, and then individually housed with food and water ad lib. Surgical staples were removed after 7-10 days post-implantation. Rats were allowed a 2-week post-surgical recovery period before treatment with test compound. Oral dosing (p.o.) was at time zero, with rats receiving a single dose of vehicle (10% EtOH, 20% Tween-80, 70% PEG-400) or a 100 μmol/kg dose of compound dissolved in vehicle. Temperature measurements were recorded every 15 minutes for the duration of the study (24 hours).
Representative compounds described herein have the novel property of having limited transient temperature effect on core body temperature of a mammal (e.g. rats). For example, compounds tested alter core body temperature of rats by less than about +0.5° C. at about 1 hour after administration of a single dose (100 μmol/kg) of the test compounds orally, for example, in the range from about −2.5° C. to less than about +0.5° C., from about −0.5° C. to less than about +0.5° C.; or from about −0.3° C. to about +0.3° C.
The term “core body temperature” as used herein, means the temperature measured in the intraperitoneal cavity.

CYP2C9 = biological target: T2, CYP2C9 (Homo sapiens, UniProt P11712); assay: CYP2C9 inhibition assay; assay type: in vitro ADME; settings: pH 7.4, probe Luciferin-H (100 μM final), human liver microsomes, substrate Luciferin-H, read-out: CYP2C9 % inh @ 2.2 μM
T2 construct: human liver microsomes (BD Gentest); tissue BD Gentest; host or cells: human liver microsomes
T2 sequence (P11712 whole entry): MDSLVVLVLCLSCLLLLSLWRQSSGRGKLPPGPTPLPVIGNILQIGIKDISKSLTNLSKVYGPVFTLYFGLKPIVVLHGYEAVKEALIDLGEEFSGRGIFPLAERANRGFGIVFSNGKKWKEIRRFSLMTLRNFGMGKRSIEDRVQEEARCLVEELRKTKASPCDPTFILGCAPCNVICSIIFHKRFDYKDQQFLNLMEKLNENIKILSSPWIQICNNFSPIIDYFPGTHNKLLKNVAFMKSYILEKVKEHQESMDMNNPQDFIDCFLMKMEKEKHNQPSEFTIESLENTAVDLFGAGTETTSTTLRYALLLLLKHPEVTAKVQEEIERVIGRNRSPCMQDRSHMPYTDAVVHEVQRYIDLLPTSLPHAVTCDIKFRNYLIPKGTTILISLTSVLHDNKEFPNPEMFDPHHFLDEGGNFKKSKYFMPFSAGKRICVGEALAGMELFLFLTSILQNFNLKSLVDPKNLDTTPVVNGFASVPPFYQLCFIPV
Experimental: Stock solutions of test compounds were assayed in 96-well format for their ability to inhibit CYP2C9, CYP2D6, or CYP3A4 mediated metabolism of test substrates. Luciferin-H was used as the substrate for CYP2C9; 3-[2-(N,N-diethyl-N-methylammonium)ethyl]-7-methoxy-4-methylcoumarin (AMMC) was used as the substrate for CYP2D6; 7-benzyloxyquiniline (BZQ) was used as the substrate for CYP3A4. For each subtype, positive controls (sulphaphenazole in the case of CYP2C9; quinidine in the case of CYP2D6, ketoconazole in the case of CYP3A4) were used to validate assay results run in duplicate.
Pre-Incubation Mixture Preparation for CYP2C9 and CYP2D6: A pre-incubation mixture was prepared by combining 100 mM phosphate buffer (9.12 mL; pH 7.4), human liver microsomes (BD Gentest, 240 itt; final concentration: 0.4 mg/mL), and 10 mM nicotinamide adenine dinucleotide phosphate in 65.4 mM MgCl2 hexahydrate (120 μL; final concentration: 125 μM and 818 μM, respectively). To this was mixture is added a ‘regeneration’ mixture (120 μL) of 333 mM glucose-6-phosphate and 40 U/mL glucose-6-phosphate dehydrogenase in 5 mM sodium citrate (final concentration: 4 mM, 0.5 U/mL, and 0.06 mM, respectively).
Substrate Mixture Preparation for CYP2C9: To a solution of 25 mM phosphate buffer, (2.16 mL, pH 7.4) was added 5 mM Luciferin-H (Promega P450 Glo Assay V8792, 240 μL; final solution concentration 0.5 mM, final assay concentration 100 μM).
CYP2C9 Inhibiton Assay: To each well in the assay plate containing varying concentrations of test compound or control compound in DMSO (10 μL) Pre-Incubation Mixture (40 itt) was added to the wells and the assay plate was pre-incubated for 10 minutes at 37° C., with shaking or rocking. CYP2C9 Substrate Mixture (10 μL) was added to all wells and the assay plate was incubated for an additional 25 minutes at 37° C., with shaking or rocking. Final DMSO concentration was 1%. Luciferin-H detection reagent (Promega kit V8792, 50 μL) was added to all wells. The plate was then vortexed at ambient temperature for between 20 minutes and 2 hours, and the luminescence of each well was then read and recorded.

T1 sequence (Q8NER1 whole entry): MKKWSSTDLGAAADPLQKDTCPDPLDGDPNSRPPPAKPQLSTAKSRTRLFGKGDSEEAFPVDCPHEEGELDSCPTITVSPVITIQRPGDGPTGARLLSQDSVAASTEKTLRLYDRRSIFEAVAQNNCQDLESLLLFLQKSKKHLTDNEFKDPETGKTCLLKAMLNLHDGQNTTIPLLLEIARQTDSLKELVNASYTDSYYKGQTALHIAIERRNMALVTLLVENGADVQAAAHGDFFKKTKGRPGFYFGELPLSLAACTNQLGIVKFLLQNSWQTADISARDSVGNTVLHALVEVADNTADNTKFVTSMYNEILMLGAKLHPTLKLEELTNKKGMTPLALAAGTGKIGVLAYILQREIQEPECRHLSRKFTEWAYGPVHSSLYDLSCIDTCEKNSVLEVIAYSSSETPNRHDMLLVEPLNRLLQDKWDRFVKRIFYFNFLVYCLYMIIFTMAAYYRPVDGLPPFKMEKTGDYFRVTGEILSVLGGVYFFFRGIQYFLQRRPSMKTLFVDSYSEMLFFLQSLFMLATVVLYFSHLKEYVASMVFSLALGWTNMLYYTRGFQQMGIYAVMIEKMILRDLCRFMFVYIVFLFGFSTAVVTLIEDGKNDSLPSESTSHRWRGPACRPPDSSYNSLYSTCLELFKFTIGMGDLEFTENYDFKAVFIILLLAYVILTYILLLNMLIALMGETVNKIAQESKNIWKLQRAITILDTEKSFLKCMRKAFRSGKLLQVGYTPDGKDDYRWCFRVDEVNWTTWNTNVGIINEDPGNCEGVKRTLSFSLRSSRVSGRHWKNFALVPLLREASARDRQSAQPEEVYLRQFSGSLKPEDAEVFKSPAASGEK

Row | SMILES | IC50 [1] | inhibition at 25 min, 2.2 µM (CYP2C9) | Δ Temp (° C.) [2]
1 | O=C(Nc1cccc2[nH]ncc12)N[C@@H]1CC2(CCC2)Oc2ccc(F)cc21 [Example 8, N-[(4R)-6-fluoro-3,3′,4,4′-tetrahydro-2′H-spiro[chromene-2,1′-cyclobutan]-4-yl]-N′-1H-indazol-4-ylurea] | 76 nM |  | 0.1 °C
2 | CCC1(CC)C[C@@H](NC(=O)Nc2cccc3c2cnn3C)c2cccc(F)c2O1 [Example 50, N-[(4R)-2,2-diethyl-8-fluoro-3,4-dihydro-2H-chromen-4-yl]-N′-(1-methyl-1H-indazol-4-yl)urea] | 35 nM |  | 0.1 °C
3 | CCC1(CC)C[C@@H](NC(=O)Nc2cccc3c(C)nccc23)c2cc(F)ccc2O1 [Example 86, N-[(4R)-2,2-diethyl-6-fluoro-3,4-dihydro-2H-chromen-4-yl]-N′-(1-methylisoquinolin-5-yl)urea] | 10 nM |  | −1.7 °C
4 | Cn1ncc2c(NC(=O)N[C@@H]3CC4(CCC4)Oc4ccc(F)cc43)cccc21 [Example 7, N-[(4R)-6-fluoro-3,3′,4,4′-tetrahydro-2′H-spiro[chromene-2,1′-cyclobutan]-4-yl]-N′-(1-methyl-1H-indazol-4-yl)urea] | 78 nM |  | 0.1 °C
5 | O=C(Nc1cccc2[nH]ncc12)N[C@@H]1CCOc2c(OC(F)(F)F)cccc21 [Example 70, N-1H-indazol-4-yl-N′-[(4R)-8-(trifluoromethoxy)-3,4-dihydro-2H-chromen-4-yl]urea] | 5 nM |  | 0.3 °C

Continued by falling IC50 [1], values first:

Row | IC50 [1] | inhibition at 25 min, 2.2 µM (CYP2C9) | SMILES | Δ Temp (° C.) [2]
6 | 28 nM |  | O=C(Nc1cccc2c1C[C@H](O)CC2)N[C@@H]1CC2(CCC2)Oc2ccc(F)cc21 [Example 6, N-[(4R)-6-fluoro-3,3′,4,4′-tetrahydro-2′H-spiro[chromene-2,1′-cyclobutan]-4-yl]-N′-[(7R)-7-hydroxy-5,6,7,8-tetrahydronaphthalen-1-yl]urea] | 0.2 °C
7 | 21 nM | 13% | CC1(C)C[C@@H](NC(=O)Nc2cccc3cnc(N)cc23)c2ccc(F)cc2O1 [Example 106, N-(3-aminoisoquinolin-5-yl)-N′-[(4R)-7-fluoro-2,2-dimethyl-3,4-dihydro-2H-chromen-4-yl]urea] | 0.3 °C
8 | 19 nM |  | CCC1(CC)C[C@@H](NC(=O)Nc2cccc3[nH]ncc23)c2cc(F)ccc2O1 [Example 58, N-[(4R)-2,2-diethyl-6-fluoro-3,4-dihydro-2H-chromen-4-yl]-N′-1H-indazol-4-ylurea] | 0.3 °C
9 | 18 nM |  | CCCC1(CCC)C[C@@H](NC(=O)Nc2cccc3c2cnn3C)c2cccc(F)c2O1 [Example 67, N-[(4R)-8-fluoro-2,2-dipropyl-3,4-dihydro-2H-chromen-4-yl]-N′-(1-methyl-1H-indazol-4-yl)urea] | −0.2 °C
10 | 16 nM |  | CC1(C)C[C@@H](NC(=O)Nc2cccc3[nH]ncc23)c2ccc(C(F)(F)F)cc2O1 [Example 41, N-[(4R)-2,2-dimethyl-7-(trifluoromethyl)-3,4-dihydro-2H-chromen-4-yl]-N′-1H-indazol-4-ylurea] | −2.5 °C
11 | 9 nM |  | Cn1ncc2c(NC(=O)N[C@@H]3CC(CF)(CF)Oc4c(OC(F)(F)F)cccc43)cccc21 [Example 88, N-[(4R)-2,2-bis(fluoromethyl)-8-(trifluoromethoxy)-3,4-dihydro-2H-chromen-4-yl]-N′-(1-methyl-1H-indazol-4-yl)urea] | −0.3 °C

Reference: patent US8604053B2, “TRPV1 antagonists” (AbbVie Inc., priority 2008, dated 2013)
